These results are taken from patent US10081631B2, “2-(1H-indazol-3-yl)-1H-imidazo[4,5-C]pyridine and therapeutic uses thereof” (Samumed, LLC, priority 2014, dated 2018).

Molecules are shown by their SMILES.

Assay [1] has as its system Wnt activity (Sp5-Luc reporter, SW480 colon carcinoma cells). Kind of assay: Screening assay for Wnt activity: Sp5-Luc reporter gene assay in SW480 cells. It counts as cell-based. The note with it: Homo sapiens, 42 h incubation, luminescence. The essentials:
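IC50 values come from variable-slope four-parameter fits of luciferase signal normalized to DMSO wells. Stable Sp5-Luc reporter SW480 colon carcinoma cells were exposed to compounds in a 3-fold dilution series (source plates from 10 mM stock) for forty-two hours at 37 °C.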
In general terms: A reporter such as luciferase makes a cellular process visible.

Assay [2] concerns primary human fibroblasts derived from IPF patients (LL29 cells). In words: Inhibition of fibrosis: TGF-β1-treated primary human fibroblasts from IPF patients (LL29), αSMA staining. The following applies: Fibroblast, 96 h, TGF-β1 20 ng/mL, 4 days, % αSMA-positive cells. It is filed as cell-based. The essentials:
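[…] (0.1% DMSO) on LL29 cells in F12 with 1% FBS, with TGF-β1 (20 ng/mL) added 1 h after plating; 4 days at 37 °C. SYTOX-positive dead cells were excluded and the % αSMA-positive cells was imaged, normalized to TGF-β1/DMSO wells, triplicates; EC50 by non-linear regression.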

With `Cc1cn(-c2nccc3[nH]c(-c4n[nH]c5ccc(-c6cncc(NC(=O)C(C)(C)C)c6)cc45)nc23)cn1` [Compound 190, N-(5-(3-(4-(4-Methyl-1H-imidazol-1-yl)-1H-imidazo[4,5-c]pyridin-2-yl)-1H-indazol-5-yl)pyridin-3-yl)pivalamide], half-maximal inhibition in assay [1] (IC50) required 5 nM. The EC50 – broadly, the concentration needed to bring the measured effect to its halfway point – in assay [2] turned out to be 50 nM.
In the case of `CC(C)CC(=O)Nc1cncc(-c2ccc3[nH]nc(-c4nc5c(-c6ccc(F)s6)nccc5[nH]4)c3c2)c1` [Compound 314, N-(5-(3-(4-(5-Fluorothiophen-2-yl)-1H-imidazo[4,5-c]pyridin-2-yl)-1H-indazol-5-yl)pyridin-3-yl)-3-methylbutanamide], in assay [1], the IC50 (as a rule, the midpoint of a concentration-inhibition curve) was 44.7 nM. Besides, the EC50 in assay [2] is 665 nM.
Regarding `CCCC(=O)Nc1cncc(-c2ccc3[nH]nc(-c4nc5c(-c6ccsc6)nccc5[nH]4)c3c2)c1` [Compound 251, N-(5-(3-(4-(Thiophen-3-yl)-1H-imidazo[4,5-c]pyridin-2-yl)-1H-indazol-5-yl)pyridin-3-yl)butyramide], the IC50 in assay [1] was determined as 1 nM. Besides, a half-maximal response in assay [2] (EC50) required 18 nM.
On the same counts, the results for `CS(=O)(=O)NCc1cc(F)cc(-c2nccc3[nH]c(-c4n[nH]c5ccc(-c6cncc(NC(=O)c7ccccc7)c6)cc45)nc23)c1` [Compound 401, N-(5-(3-(4-(3-Fluoro-5-(methylsulfonamidomethyl)phenyl)-1H-imidazo[4,5-c]pyridin-2-yl)-1H-indazol-5-yl)pyridin-3-yl)benzamide] are 32 nM and 9990 nM.
In turn, `Cc1ccc(-c2nccc3[nH]c(-c4n[nH]c5ccc(-c6cncc(NC(=O)CC(C)(C)C)c6)cc45)nc23)s1` [Compound 354, 3,3-Dimethyl-N-(5-(3-(4-(5-methylthiophen-2-yl)-1H-imidazo[4,5-c]pyridin-2-yl)-1H-indazol-5-yl)pyridin-3-yl)butanamide] displayed an IC50 in assay [1] of 12.7 nM. In assay [2], the EC50 came out at 86 nM.
On to `O=C(Nc1cncc(-c2ccc3[nH]nc(-c4nc5c(-c6ccccn6)nccc5[nH]4)c3c2)c1)C1CCC1` [Compound 150, N-(5-(3-(4-(Pyridin-2-yl)-1H-imidazo[4,5-c]pyridin-2-yl)-1H-indazol-5-yl)pyridin-3-yl)cyclobutanecarboxamide], for which the IC50 in assay [1] is 51.4 nM. This compound also showed an EC50 in assay [2] of 1520 nM.
For `CC(C)Nc1cncc(-c2ccc3[nH]nc(-c4nc5c(-c6ccoc6)nccc5[nH]4)c3c2)c1` [Compound 272, 5-(3-(4-(Furan-3-yl)-1H-imidazo[4,5-c]pyridin-2-yl)-1H-indazol-5-yl)-N-isopropylpyridin-3-amine], in assay [1], the IC50 was < 1 nM. Moreover, the EC50 in assay [2] is 9 nM.
For the compound `Fc1cccc(-c2nccc3[nH]c(-c4n[nH]c5ccc(C6=CCNCC6)cc45)nc23)c1` [Compound 1770, 4-(3-Fluorophenyl)-2-(5-(1,2,3,6-tetrahydropyridin-4-yl)-1H-indazol-3-yl)-1H-imidazo[4,5-c]pyridine], half-maximal inhibition in assay [1] (IC50) was put at 658 nM. In addition, in assay [2], the midpoint of the response, the EC50, lay at 9990 nM.
For the compound `CC(C)(C)C(=O)Nc1cncc(-c2ccc3[nH]nc(-c4nc5c(-c6ccsc6)nccc5[nH]4)c3c2)c1` [Compound 242, N-(5-(3-(4-(Thiophen-3-yl)-1H-imidazo[4,5-c]pyridin-2-yl)-1H-indazol-5-yl)pyridin-3-yl)pivalamide], half-maximal inhibition in assay [1] (IC50) required 27.4 nM. The EC50 in assay [2] is 1180 nM.
For `CN1CCN(c2nccc3[nH]c(-c4n[nH]c5ccc(-c6cncc(NC(=O)C7CCCC7)c6)cc45)nc23)CC1` [Compound 229, N-(5-(3-(4-(4-Methylpiperazin-1-yl)-1H-imidazo[4,5-c]pyridin-2-yl)-1H-indazol-5-yl)pyridin-3-yl)cyclopentanecarboxamide], in that order: 711 nM and 9990 nM.
Regarding `c1cc2[nH]c(-c3n[nH]c4ccc(-c5cncc(CNCC6CCCC6)c5)cc34)nc2c(-c2ccoc2)n1` [Compound 284, 1-Cyclopentyl-N-((5-(3-(4-(furan-3-yl)-1H-imidazo[4,5-c]pyridin-2-yl)-1H-indazol-5-yl)pyridin-3-yl)methyl)methanamine], the IC50 in assay [1] is > 10000 nM. Besides, a half-maximal effect in assay [2] (EC50) was put at 9 nM.
In the case of `CCNCc1cncc(-c2ccc3[nH]nc(-c4nc5c(-c6ccccn6)nccc5[nH]4)c3c2)c1` [Compound 136, N-((5-(3-(4-(Pyridin-2-yl)-1H-imidazo[4,5-c]pyridin-2-yl)-1H-indazol-5-yl)pyridin-3-yl)methyl)ethanamine], in assay [1], the IC50 stood at 3060 nM. For the same compound, it took 9 nM to reach a half-maximal effect in assay [2] (EC50).
In turn, `CS(=O)(=O)NCc1cc(F)cc(-c2nccc3[nH]c(-c4n[nH]c5ccc(-c6cncc(CNCc7ccccc7)c6)cc45)nc23)c1` [Compound 413, N-(3-(2-(5-(5-((Benzylamino)methyl)pyridin-3-yl)-1H-indazol-3-yl)-1H-imidazo[4,5-c]pyridin-4-yl)-5-fluorobenzyl)methanesulfonamide] yielded an IC50 in assay [1] of 187 nM. The compound also came in with an EC50 in assay [2] of 9 nM.
`CCCC(=O)Nc1cncc(-c2ccc3[nH]nc(-c4nc5c(-c6cc(F)cc(CNS(C)(=O)=O)c6)nccc5[nH]4)c3c2)c1` [Compound 407, N-(5-(3-(4-(3-Fluoro-5-(methylsulfonamidomethyl)phenyl)-1H-imidazo[4,5-c]pyridin-2-yl)-1H-indazol-5-yl)pyridin-3-yl)butyramide] came in with an IC50 in assay [1] of 24 nM. This compound gave an EC50 in assay [2] of 19 nM.
As for `CN(C)c1cncc(-c2ccc3[nH]nc(-c4nc5c(N6CCCCC6)nccc5[nH]4)c3c2)c1` [Compound 163, N,N-Dimethyl-5-(3-(4-(piperidin-1-yl)-1H-imidazo[4,5-c]pyridin-2-yl)-1H-indazol-5-yl)pyridin-3-amine], inhibition in assay [1] was half-maximal at 3 nM (IC50). Further, in assay [2], the response was half-maximal at 1550 nM (EC50).
Consider `NC1CN(c2cncc(-c3ccc4[nH]nc(-c5nc6c(-c7cccc(F)c7)nccc6[nH]5)c4c3)n2)C1` [Compound 1774, 1-(6-(3-(4-(3-Fluorophenyl)-1H-imidazo[4,5-c]pyridin-2-yl)-1H-indazol-5-yl)pyrazin-2-yl)azetidin-3-amine], for which, in assay [1], the IC50 stood at 171 nM. In assay [2], this compound returned an EC50 of 102 nM.
In assay [1], `c1ccc(CNCc2cncc(-c3ccc4[nH]nc(-c5nc6c(-c7cccnc7)nccc6[nH]5)c4c3)c2)cc1` [Compound 101, N-Benzyl-1-(5-(3-(4-(pyridin-3-yl)-1H-imidazo[4,5-c]pyridin-2-yl)-1H-indazol-5-yl)pyridin-3-yl)methanamine] yielded an IC50 of 47 nM. This compound had an EC50 in assay [2] of 2430 nM.
On the same counts, the results for `CC(C)CC(=O)Nc1cncc(-c2ccc3[nH]nc(-c4nc5c(-c6ccc(F)cc6)nccc5[nH]4)c3c2)c1` [Compound 28, N-(5-(3-(4-(4-Fluorophenyl)-1H-imidazo[4,5-c]pyridin-2-yl)-1H-indazol-5-yl)pyridin-3-yl)-3-methylbutanamide] are 9 nM and 9 nM.
For `Cc1ccc(-c2nccc3[nH]c(-c4n[nH]c5ccc(-c6cncc(NC(=O)C7CCC7)c6)cc45)nc23)s1` [Compound 358, N-(5-(3-(4-(5-Methylthiophen-2-yl)-1H-imidazo[4,5-c]pyridin-2-yl)-1H-indazol-5-yl)pyridin-3-yl)cyclobutanecarboxamide], the IC50 in assay [1] turned out to be 9 nM. Moreover, the EC50 in assay [2] worked out at 21 nM.
For `O=C(Nc1cncc(-c2ccc3[nH]nc(-c4nc5c(-c6ccsc6)nccc5[nH]4)c3c2)c1)C1CC1` [Compound 253, N-(5-(3-(4-(Thiophen-3-yl)-1H-imidazo[4,5-c]pyridin-2-yl)-1H-indazol-5-yl)pyridin-3-yl)cyclopropanecarboxamide], in that order: 126 nM and 544 nM.
The compound `CN1CCN(c2nccc3[nH]c(-c4n[nH]c5ccc(-c6cncc(CN7CCCCC7)c6)cc45)nc23)CC1` [Compound 223, 4-(4-Methylpiperazin-1-yl)-2-(5-(5-(piperidin-1-ylmethyl)pyridin-3-yl)-1H-indazol-3-yl)-1H-imidazo[4,5-c]pyridine] returned an IC50 in assay [1] of 172 nM. The compound further came in with an EC50 in assay [2] of 1110 nM.
`Cc1cn(-c2nccc3[nH]c(-c4n[nH]c5ccc(-c6cncc(NC(=O)CC(C)C)c6)cc45)nc23)cn1` [Compound 184, 3-Methyl-N-(5-(3-(4-(4-methyl-1H-imidazol-1-yl)-1H-imidazo[4,5-c]pyridin-2-yl)-1H-indazol-5-yl)pyridin-3-yl)butanamide]: in assay [1], the IC50 was found to be 2 nM. For the same compound, a half-maximal effect in assay [2] (EC50) was put at 49 nM.
The compound `O=C(Nc1cncc(-c2ccc3[nH]nc(-c4nc5c(-c6cccc(F)c6)nccc5[nH]4)c3c2)c1)C1CCCC1` [Compound 21, N-(5-(3-(4-(3-Fluorophenyl)-1H-imidazo[4,5-c]pyridin-2-yl)-1H-indazol-5-yl)pyridin-3-yl)cyclopentanecarboxamide] showed an IC50 in assay [1] of 12.8 nM. In assay [2], this compound displayed an EC50 of 317 nM.
Take `O=C(Nc1cncc(-c2ccc3[nH]nc(-c4nc5c(-c6ccc(F)s6)nccc5[nH]4)c3c2)c1)C1CCC1` [Compound 332, N-(5-(3-(4-(5-Fluorothiophen-2-yl)-1H-imidazo[4,5-c]pyridin-2-yl)-1H-indazol-5-yl)pyridin-3-yl)cyclobutanecarboxamide]: the IC50 in assay [1] was 32.6 nM. This compound had an EC50 in assay [2] of 363 nM.
Turning to `Oc1cncc(-c2ccc3[nH]nc(-c4nc5c(-c6cccc(F)c6)nccc5[nH]4)c3c2)c1` [Compound 1781, 5-(3-(4-(3-Fluorophenyl)-1H-imidazo[4,5-c]pyridin-2-yl)-1H-indazol-5-yl)pyridin-3-ol], the IC50 in assay [1] was determined as 6 nM. In addition, the EC50 in assay [2] was 79 nM.
In the case of `CN(C)Cc1cncc(-c2ccc3[nH]nc(-c4nc5c(-c6cccs6)nccc5[nH]4)c3c2)c1` [Compound 299, N,N-Dimethyl-1-(5-(3-(4-(thiophen-2-yl)-1H-imidazo[4,5-c]pyridin-2-yl)-1H-indazol-5-yl)pyridin-3-yl)methanamine], the IC50 in assay [1] came out at 332 nM. Moreover, in assay [2], the response was half-maximal at 608 nM (EC50).
